Source: patent publication US5288743A, “Indole carboxylate derivatives which inhibit leukotriene biosynthesis” (Abbott Laboratories, priority 1992, dated 1994)

Columns and labels:
[1] = test system: LTB4 biosynthesis in human PMNL; test: Inhibition of calcium ionophore A23187-induced LTB4 biosynthesis in human polymorphonuclear leukocytes (PMNL); type: cell-based; details: human PMNL (5×10^6 cells/250 μL), 15 min preincubation at 37° C., A23187 8.3 μM, 10 min, LTB4 by HPLC
Experimental: Inhibition of leukotriene biosynthesis was evaluated in assays, involving calcium ionophore-induced LTB4 biosynthesis expressed by human polymorphonuclear leukocytes (PMNL) or human whole blood. Human PMNL were isolated from heparinized (20 USP units/mL) venous blood using Ficoll-Hypaque Mono-Poly Resolving Medium. Human PMNL suspensions (5×10^6 cells/250 μL) were preincubated with test compounds or vehicle for 15 min at 37° C. followed by calcium ionophore A23187 challenge (final concentration of 8.3 μM) and the reaction terminated after 10 min by adding two volumes of methanol containing prostaglandin B2 as an internal recovery standard. The methanol extracts were analyzed for LTB4 content by HPLC.

[2] = test system: LTB4 biosynthesis in human whole blood; test: Inhibition of calcium ionophore A23187-induced LTB4 biosynthesis in human whole blood; type: cell-based; details: 0.5 h; human heparinized whole blood, A23187 50 μM, 30 minutes at 37° C., LTB4 by radioimmunoassay
Experimental: The assay using human heparinized whole blood was incubated for 30 minutes at 37° C. after adding 50 μM of ionophore A23187. The plasma layer was obtained by centrifugation and deproteinized by the addition of four volumes of methanol. The methanol extract was analyzed for LTB4 using a commercially available radioimmunoassay.

[3] = test system: leukotriene biosynthesis; test: Inhibition of leukotriene biosynthesis in vivo, rat peritoneal anaphylaxis model, oral administration; details: for percent inhibition of leukotriene biosynthesis: oral dose of 30 μmol/kg, gavage one hour prior to antigen challenge
Experimental: Inhibition of the biosynthesis of leukotrienes in vivo after oral administration of compound was determined using a rat peritoneal anaphylaxis model in a similar manner as that described by Young and coworkers (Young, P. R.; Dyer, R. D.; Carter, G. W. Fed. Proc., Fed. Am. Soc. Exp. Biol. 1985, 44, 1185). In this model rats were injected intraperitoneally (ip) with rabbit antibody to bovine serum albumin (BSA) and three hours later injected ip with BSA to induce an antigen-antibody response. Rats were sacrificed 15 minutes after this challenge and the peritoneal fluids were collected and analyzed for leukotriene levels. Test compounds were administered by gavage one hour prior to the antigen challenge. Percent inhibition values were determined by comparing the treatment group to the mean of the control group. […] Compounds 5, 8, and 9 inhibit>50% leukotriene biosynthesis with an oral dose of 30 μmol/kg.

Row | SMILES | IC50 [1] | IC50 [2] | percent inhibition of leukotriene biosynthesis [3] | ED50 ([3]; 1 h, po (gavage) one hour prior to antigen challenge, read-out: inhibits leukotriene biosynthesis, ED50)
1 | CC(C)(C)Sc1c(CC(C)(C)C(=O)O)n(Cc2ccc(Cl)cc2)c2ccc(OCc3ccncc3)cc12 [Example 2, 3-[1-(4-chlorobenzyl)-3-(1,1-dimethylethylthio)-5-(pyrid-4-ylmethoxy)-indol-2-yl]-2,2-dimethylpropionic acid] | < 100 nM | 840 nM |  | 
2 | CC(C)(C)Sc1c(CC(C)(C)C(=O)O)n(Cc2ccc(Cl)cc2)c2ccc(Oc3ccccn3)cc12 [Example 5, 3-[1-(4-chlorobenzyl)-3-(1,1-dimethylethylthio)-5-(pyrid-2-yloxy)indol-2-yl]-2,2-dimethylpropionic acid] | 15 nM | 2470 nM | > 50% | 
3 | CC(C)(C)Sc1c(CC(C)(C)C(=O)O)n(Cc2ccc(Cl)cc2)c2ccc(OCc3ccc4ccccc4c3)cc12 [Example 4, 3-[1-(4-chlorobenzyl)-3-(1,1-dimethylethylthio)-5-(napth-2-ylmethoxy)indol-2-yl]-2,2-dimethylpropionic acid] | 12 nM | 4420 nM |  | 
4 | CC(C)(C)Sc1c(CC(C)(C)C(=O)O)n(Cc2ccc(Cl)cc2)c2ccc(OCc3cccc(Cl)n3)cc12 [Example 8, 3-[1-(4-chlorobenzyl)-5-(6-chloropyrid-2-ylmethoxy)-3-(1,1-dimethylethylthio)indol-2-yl]-2,2-dimethylpropionic acid] | 17 nM | 110 nM | > 50% | 
5 | CC(C)(C)Sc1c(CC(C)(C)C(=O)O)n(Cc2ccc(Cl)cc2)c2ccc(OCc3ccc(Cl)s3)cc12 [Example 6, 3-[1-(4-chlorobenzyl)-5-(5-chlorothien-2-ylmethoxy)-3-(1,1-dimethylethylthio)indol-2-yl]-2,2-dimethylpropionic acid] | < 800 nM | 3200 nM |  | 
6 | Cc1cc(C)nc(COc2ccc3c(c2)c(SC(C)(C)C)c(CC(C)(C)C(=O)O)n3Cc2ccc(Cl)cc2)n1 [Example 7, 3-[1-(4-chlorobenzyl)-3-(1,1-dimethylethylthio)-5-(4,6-dimethylpyrimid-2-ylmethoxy)indol-2-yl]-2,2-dimethylpropionic acid] | 30 nM | 1600 nM |  | 
7 | CC(C)(C)Sc1c(CC(C)(C)C(=O)O)n(Cc2ccc(Cl)cc2)c2ccc(OCc3cscn3)cc12 [Example 9, 3-[1-(4-chlorobenzyl)-3-(1,1-dimethylethylthio)-5-(thiazol-4-ylmethoxy)indol-2-yl]-2,2-dimethylpropionic acid] | 4.4 nM | 40 nM | > 50% | 
8 | CC(C)(C)Sc1c(CC(C)(C)C(=O)O)n(Cc2ccc(Cl)cc2)c2ccc(OCc3cccs3)cc12 [Example 10, 3-[1-(4-chlorobenzyl)-3-(1,1-dimethylethylthio)-5-(thien-2-ylmethoxy)indol-2-yl]-2,2-dimethylpropionic acid] | 7 nM | 1400 nM |  | 
9 | CC(C)(C)Sc1c(CC(C)(C)C(=O)O)n(Cc2ccc(Cl)cc2)c2ccc(OCc3cccnc3)cc12 [Example 1, 3-[1-(4-chlorobenzyl)-3-(1,1-dimethylethylthio)-5-(pyrid-3-ylmethoxy)-indol-2-yl]-2,2-dimethylpropionic acid] | 17 nM | 1090 nM |  | 
10 | CC(C)(C)Sc1c(CC(C)(C)C(=O)O)n(Cc2ccc(Cl)cc2)c2ccc(OCc3ccccn3)cc12 [Example 3, 3-[1-(4-chlorobenzyl)-3-(1,1-dimethylethylthio)-5-(pyrid-2-ylmethoxy)indol-2-yl]-2,2-dimethylpropionic acid] | < 50 nM | 50 nM |  | 0.1 mg/kg
